{"source": "ChEMBL document CHEMBL4813945", "about": "“Discovery and development of novel pyrimidine and pyrazolo/thieno-fused pyrimidine derivatives as potent and orally active inducible nitric oxide synthase dimerization inhibitor with efficacy for arthritis” (Eur J Med Chem, 2021)", "key": {"[1]": {"test_system": "L02", "assay": "Antiinflammatory activity against human L02 assessed as inhibition of LPS-induced NO production preincubated for 1 hrs followed by LPS stimulation and measured after 24 hrs by Griess assay relative to control", "format": "functional, cell-based"}, "[2]": {"assay": "Subacute toxicity in rat assessed as spleen damage at 100 to 500 mg/kg, IG administered every other day for 14 days and measured every 2 days by H and E staining", "format": "organism-based", "conditions": "in vivo, po, 336 h, dose 100-500 mg/kg, time 14 day"}, "[3]": {"molecular_target": "T1, Cytochrome P450 1A2 (Homo sapiens, UniProt P05177)", "T1 sequence (P05177 whole entry)": "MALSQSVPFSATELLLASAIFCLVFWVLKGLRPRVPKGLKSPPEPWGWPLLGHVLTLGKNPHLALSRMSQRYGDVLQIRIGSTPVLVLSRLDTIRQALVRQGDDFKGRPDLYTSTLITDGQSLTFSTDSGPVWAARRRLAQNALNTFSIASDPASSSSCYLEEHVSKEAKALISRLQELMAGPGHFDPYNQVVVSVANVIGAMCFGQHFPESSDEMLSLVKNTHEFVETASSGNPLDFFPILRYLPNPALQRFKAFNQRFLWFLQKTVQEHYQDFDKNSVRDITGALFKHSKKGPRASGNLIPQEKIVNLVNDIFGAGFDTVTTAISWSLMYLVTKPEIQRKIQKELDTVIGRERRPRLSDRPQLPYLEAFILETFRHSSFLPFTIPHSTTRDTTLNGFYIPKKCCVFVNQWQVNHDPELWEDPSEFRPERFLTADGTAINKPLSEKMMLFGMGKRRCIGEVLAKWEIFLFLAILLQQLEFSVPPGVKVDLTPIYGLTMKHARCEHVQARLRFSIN", "assay": "Inhibition of CYP1A2 in human liver microsomes using Phenacetin as substrate measured after 20 mins by LC-MS/MS analysis", "format": "ADME"}, "[4]": {"molecular_target": "Cytochrome P450 2D6 (Homo sapiens, UniProt P10635)", "sequence (P10635 whole entry)": "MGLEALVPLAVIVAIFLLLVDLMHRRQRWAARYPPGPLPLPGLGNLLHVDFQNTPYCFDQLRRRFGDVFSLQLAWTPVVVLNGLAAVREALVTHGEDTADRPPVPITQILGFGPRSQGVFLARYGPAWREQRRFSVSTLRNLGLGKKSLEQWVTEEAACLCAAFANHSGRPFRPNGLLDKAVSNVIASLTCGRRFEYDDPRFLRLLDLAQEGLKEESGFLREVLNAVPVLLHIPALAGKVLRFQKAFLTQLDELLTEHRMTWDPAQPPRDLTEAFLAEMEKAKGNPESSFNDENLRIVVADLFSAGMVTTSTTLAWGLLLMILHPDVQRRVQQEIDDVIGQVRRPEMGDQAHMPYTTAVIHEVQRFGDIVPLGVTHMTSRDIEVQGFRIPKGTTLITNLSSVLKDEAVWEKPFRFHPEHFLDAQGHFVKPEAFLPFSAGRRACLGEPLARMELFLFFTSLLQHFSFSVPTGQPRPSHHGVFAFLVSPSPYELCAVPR", "assay": "Inhibition of CYP2D6 in human liver microsomes using Dextromethorphan as substrate measured after 20 mins by LC-MS/MS analysis", "format": "ADME"}, "[5]": {"assay": "Plasma clearance in Sprague-Dawley rat at 1 mg/kg, iv measured after 0.08 to 24 hrs hrs by LC/MS/MS analysis", "format": "ADME, organism-based", "conditions": "time 0.08-24 hrs"}, "[6]": {"assay": "Oral bioavailability in Sprague-Dawley rat at 10 mg/kg measured after 0.25 to 24 hrs hrs by LC-MS/MS analysis", "format": "ADME, organism-based", "conditions": "in vivo, time 0.25-24 hrs"}, "[7]": {"test_system": "RAW264.7", "assay": "Cytotoxicity against mouse RAW264.7 cells at 20 uM measured after 24 hrs", "format": "cell-based", "conditions": "raw264.7, 24 h"}, "[8]": {"test_system": "Rattus norvegicus", "assay": "Antiinflammatory activity in complete freund's adjuvant-induced male Sprague-Dawley rat model of arthritis assessed as improved cartilage destruction at 80 mg/kg, IG after 4 weeks by H and E staining based histopathological analysis", "format": "functional, organism-based"}, "[9]": {"assay": "Acute toxicity in rat assessed as mortality at 2000 mg/kg, IG administered as single dose", "format": "organism-based", "conditions": "in vivo, po"}, "[10]": {"assay": "Subacute toxicity in rat assessed as change in body weight at 100 to 500 mg/kg, IG administered every other day for 14 days and measured every 2 days", "format": "organism-based", "conditions": "in vivo, po, 336 h, dose 100-500 mg/kg, time 14 day"}, "[11]": {"test_system": "RAW264.7", "assay": "Inhibition of LPS-induced NO release in mouse RAW264.7 cells preincubated for 1 hrs followed by LPS stimulation and measured after 24 hrs by Griess reagent based assay", "format": "functional, cell-based"}, "[12]": {"assay": "Half life in Sprague-Dawley rat at 1 mg/kg, iv measured after 0.08 to 24 hrs by LC-MS/MS analysis", "format": "ADME, organism-based", "conditions": "in vivo, time 0.08-24 hrs"}, "[13]": {"assay": "Subacute toxicity in rat assessed as clonic convulsions at 100 to 500 mg/kg, IG administered every other day for 14 days and measured every 2 days", "format": "organism-based", "conditions": "in vivo, po, 336 h, dose 100-500 mg/kg, time 14 day"}, "[14]": {"assay": "Acute toxicity in rat assessed as anorexia at 2000 mg/kg, IG administered as single dose", "format": "organism-based", "conditions": "in vivo, po"}, "[15]": {"assay": "AUC (0 to infinity) in Sprague-Dawley rat at 1 mg/kg, iv measured by LC-MS analysis", "format": "ADME, organism-based", "parameters": "time infinity, route intravenous, dose 1 mg/kg", "conditions": "in vivo"}, "[16]": {"assay": "Acute toxicity in IG dosed rat assessed as maximum tolerated dose", "format": "organism-based", "conditions": "in vivo, po"}, "[17]": {"assay": "Metabolic stability in rat hepatocytes assessed as intrinsic clearance incubated up to 120 mins measured per million cells by LC-MS/MS analysis", "format": "ADME, cell-based, Hepatocyte", "conditions": "read-out: CLH"}, "[18]": {"molecular_target": "T2, Nitric oxide synthase, inducible (Mus musculus, UniProt P29477)", "T2 sequence (P29477 whole entry)": "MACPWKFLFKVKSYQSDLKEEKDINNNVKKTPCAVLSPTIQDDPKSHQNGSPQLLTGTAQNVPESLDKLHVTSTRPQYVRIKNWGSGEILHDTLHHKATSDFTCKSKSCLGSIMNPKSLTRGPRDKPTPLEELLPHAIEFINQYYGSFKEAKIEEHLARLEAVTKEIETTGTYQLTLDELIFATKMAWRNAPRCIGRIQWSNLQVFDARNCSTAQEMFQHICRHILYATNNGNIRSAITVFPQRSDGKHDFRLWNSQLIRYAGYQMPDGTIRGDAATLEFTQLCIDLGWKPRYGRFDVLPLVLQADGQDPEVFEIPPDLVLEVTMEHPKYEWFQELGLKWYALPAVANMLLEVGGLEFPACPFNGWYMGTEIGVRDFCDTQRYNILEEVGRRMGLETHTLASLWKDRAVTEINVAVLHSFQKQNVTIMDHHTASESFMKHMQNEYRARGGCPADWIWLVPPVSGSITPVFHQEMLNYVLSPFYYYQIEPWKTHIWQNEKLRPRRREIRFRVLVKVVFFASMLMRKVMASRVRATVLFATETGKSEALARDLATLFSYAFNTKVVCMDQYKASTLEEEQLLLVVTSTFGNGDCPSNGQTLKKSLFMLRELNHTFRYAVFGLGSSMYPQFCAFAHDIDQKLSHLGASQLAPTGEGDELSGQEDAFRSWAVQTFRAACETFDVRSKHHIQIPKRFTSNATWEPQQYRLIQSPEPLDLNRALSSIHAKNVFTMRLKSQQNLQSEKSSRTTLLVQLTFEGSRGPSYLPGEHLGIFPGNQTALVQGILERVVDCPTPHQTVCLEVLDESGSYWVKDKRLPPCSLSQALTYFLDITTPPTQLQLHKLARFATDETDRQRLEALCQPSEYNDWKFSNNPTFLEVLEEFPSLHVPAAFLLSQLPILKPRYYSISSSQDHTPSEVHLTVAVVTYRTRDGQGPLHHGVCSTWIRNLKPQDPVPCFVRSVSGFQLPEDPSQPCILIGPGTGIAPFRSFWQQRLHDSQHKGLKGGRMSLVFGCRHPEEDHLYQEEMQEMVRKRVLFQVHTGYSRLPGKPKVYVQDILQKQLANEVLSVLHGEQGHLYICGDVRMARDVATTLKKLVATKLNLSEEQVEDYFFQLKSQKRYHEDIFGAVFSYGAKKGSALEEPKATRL", "assay": "Inhibition of LPS induced NO-dependent iNOS activity in mouse RAW 264.7 cells preincubated for 1 hrs followed by LPS stimulation and measured after 24 hrs by Griess reagent based assay", "format": "cell-based, RAW264.7"}, "[19]": {"test_system": "Rattus norvegicus", "assay": "Antiinflammatory activity in complete freund's adjuvant-induced IG dosed male Sprague-Dawley rat model of arthritis assessed as decrease in TNF-alpha level in serum after 4 weeks by ELISA", "format": "functional, organism-based", "conditions": "dose 40-80 mg/kg"}}, "note": "The source made the active and inactive calls. No cut-off for these calls is given here."}
{"smiles": "COc1cc(/C=C/c2nc(NCc3ccc(C)cc3)c3sccc3n2)cc(OC)c1OC", "values": [{"measurement": "IC50", "setting": "[1]", "value": "> 1000", "unit": "µM"}, {"measurement": "Activity", "setting": "[2]", "value": "Non-Toxic"}, {"measurement": "IC50", "setting": "[3]", "value": 42.2, "unit": "µM"}, {"measurement": "IC50", "setting": "[4]", "value": "> 50", "unit": "µM"}, {"measurement": "clearance", "setting": "[5]", "value": 42.9, "unit": "mL/min/kg"}, {"measurement": "bioavailability", "setting": "[6]", "value": 29.9, "unit": "%"}, {"measurement": "Activity", "setting": "[7]", "value": "Non-Toxic"}, {"measurement": "Activity", "setting": "[8]", "value": "Active"}, {"measurement": "Activity", "setting": "[9]", "value": "Non-Toxic"}, {"measurement": "Activity", "setting": "[10]", "value": "Toxic"}, {"measurement": "IC50", "setting": "[11]", "value": 1.86, "unit": "µM"}, {"measurement": "half-life", "setting": "[12]", "value": 6.21, "unit": "h"}, {"measurement": "Activity", "setting": "[13]", "value": "Non-Toxic"}, {"measurement": "Activity", "setting": "[14]", "value": "Non-Toxic"}, {"measurement": "AUC(0-inf)", "setting": "[15]", "value": 401, "unit": "ng·h/mL"}, {"measurement": "MTD", "setting": "[16]", "value": 2000, "unit": "mg/kg"}, {"measurement": "hepatocyte CLint", "setting": "[17]", "value": 12.6, "unit": "µL/min/1e6 cells"}, {"measurement": "IC50", "setting": "[18]", "value": 0.96, "unit": "µM"}, {"measurement": "Activity", "setting": "[19]", "value": "Dose-Dependent Effect"}]}
